In PubChem BioAssay (NCI):
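Exposure lasted 48 hours, with cells grown in 96-well plates and compounds tested at five concentrations. GI50 marks 50% less growth. The concentration for full growth arrest is given as TGI.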

Tests used:
Experiment in all cases: growth of human tumour cells (NCI), 48 h
786-0 renal = system: 786-0 renal
ACHN renal = system: ACHN renal
MCF7 breast = system: MCF7 breast
SN12C renal = system: SN12C renal
HT29 colon = system: HT29 colon
HL-60(TB) leukemia = system: HL-60(TB) leukemia
SF-268 CNS = system: SF-268 CNS
NCI-H226 lung = system: NCI-H226 lung
OVCAR-4 ovarian = system: OVCAR-4 ovarian

Row | SMILES | TGI (786-0 renal) [µM] | TGI (ACHN renal) [µM] | TGI (MCF7 breast) [µM] | TGI (SN12C renal) [µM] | TGI (HT29 colon) [µM] | TGI (HL-60(TB) leukemia) [µM] | TGI (SF-268 CNS) [µM] | TGI (NCI-H226 lung) [µM] | TGI (OVCAR-4 ovarian) [µM] | GI50 (OVCAR-4 ovarian) [µM] | GI50 (ACHN renal) [µM] | GI50 (MCF7 breast) [µM] | GI50 (SN12C renal) [µM] | GI50 (HT29 colon) [µM] | GI50 (HL-60(TB) leukemia) [µM] | GI50 (SF-268 CNS) [µM] | GI50 (NCI-H226 lung) [µM]
1 | CC(=O)/C(=C\c1ccc(Cl)c(Cl)c1)C(=O)C(C)CN(C)C (centres undefined) | 8.96 | 17.9 | 22.4 | 20.6 | 24.1 | 5.36 | 23.4 | 14.9 | – | – | – | – | – | – | – | – | –
2 | CC(C)(C)OC(=O)n1cc(C2CN(O)C(=O)C23CCC(=O)N3Cc2ccccc2)c2ccccc21 (centres undefined) | > 100 | – | > 100 | 81.8 | > 100 | > 100 | > 100 | 62 | > 100 | – | – | – | – | – | – | – | –
3 | CC(=O)Nc1cc(Nc2cc(=O)[nH]c(=O)[nH]2)ccc1C | > 100 | > 100 | > 100 | > 100 | – | > 100 | > 100 | > 100 | > 100 | – | – | – | – | – | – | – | –
4 | O=[N+]([O-])c1cccnc1-n1cnc2ccccc21 | > 100 | – | > 100 | – | > 100 | > 100 | > 100 | > 100 | > 100 | – | – | – | – | – | – | – | –
5 | Cc1cc2c(c(=O)n1C)SCC2 | > 100 | > 100 | – | > 100 | > 100 | – | > 100 | > 100 | > 100 | – | – | – | – | – | – | – | –
6 | CC1CC/C(=C\c2ccc(Cl)cc2)c2nc(N)c(C#N)c(-c3ccc(Cl)cc3)c21 (centres undefined) | > 100 | > 100 | > 100 | > 100 | > 100 | 15.4 | – | > 100 | > 100 | – | – | – | – | – | – | – | –
7 | CCOC(=O)c1cn(C)c(=S)n2c1nc1ccccc12 | > 100 | > 100 | > 100 | > 100 | – | – | – | > 100 | > 100 | – | – | – | – | – | – | – | –
8 | Cc1ccc(S(=O)(=O)N(CC(O)COc2ccccc2)c2ccc(F)cc2F)cc1 (centres undefined) | 31 | 30.6 | – | 34.2 | 29.4 | 57.6 | 31.8 | 41.9 | 23.8 | – | – | – | – | – | – | – | –
9 | O=C(Nc1cccc(-n2cc(-c3ccncc3)c(-c3ccc(O)c(Cl)c3)n2)c1)c1cccc(C(F)(F)F)c1 | – | > 100 | > 100 | > 100 | > 100 | 6.76 | > 100 | > 100 | > 100 | 5.33 | 3.71 | 2.97 | 6.44 | 5.18 | 2.68 | 7.11 | 7.17
10 | COC(=O)CCCC(=O)NC1=C(NCc2ccccc2)C(=O)c2ccccc2C1=O | > 100 | > 100 | > 100 | > 100 | – | 77.3 | > 100 | – | > 100 | – | – | – | – | – | – | – | –
11 | CCC(CC(C)C)Nc1ccc(NC(CC)CC(C)C)cc1 (centres undefined) | – | 28.5 | 28.4 | 32.2 | 30.5 | 30.2 | 30.6 | 29.9 | 26.8 | 13.9 | 15.3 | 15.2 | 16 | 15.1 | 10.6 | 16 | 15.3
